Results: CN104710358A, “喹啉-4-甲酰胺衍生物及其医药用途” (Chengdu Military General Hospital of PLA, priority 2015, dated 2015)

Tested on: PTSD rat conditioned fear response [束缚应激致PTSD大鼠条件恐惧反应]
Experiment: Conditioned fear response in restraint-stress-induced PTSD rats (freezing after foot shock)
Assay type: in vivo
Settings: dose not given, Fig. 1

SMILES: Cc1ccc(Cl)cc1N1CCN(CCCNC(=O)c2ccnc3ccccc23)CC1 [化合物1, N-{3-[4-(5-氯-2-甲基苯基)哌嗪基]丙基}-喹啉-4-甲酰胺, 盐酸乙醚成盐]
- percentage of freezing time (PTSD group, before versus after drug administration, 5 min test in shock box (CS+) without current): 显著降低
- inhibition of PTSD conditioned fear response (PTSD rats): 显著抑制PTSD条件性恐惧反应
- anxiety level of PTSD rats (PTSD rats, inferred from the conditioned fear test): 降低PTSD大鼠的焦虑水平
